The structures appear in SMILES notation. Like-named read-outs stand apart in the source and are kept apart here.

This experiment deals with IL-1β production in PMA-differentiated THP-1 cells. The experiment in a line: IL-1β production in PMA-differentiated THP-1 cells stimulated with gramicidin (hTHP-1 assay containing 2% fetal bovine serum). It is filed as cell-based, human. The conditions noted are these: 2% fetal bovine serum, read-out: hTHP-1 IC50 (Average IC50 of compounds in hTHP-1 assay). In short, it runs like this:
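IL-1β release was read by HTRF on supernatants of 50,000 PMA-primed (20 ng/ml, 16-18 h) THP-1 cells/well in 2% FBS medium. Cells saw compound for 1 h (11-point titration from 100 μM, 0.37% DMSO) before a 2 h gramicidin (5 μM) challenge.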

The mark [1] stands for this setting: Homo sapiens, THP-1, Table B2, class symbols.
The mark [2] stands for this setting: Homo sapiens, THP-1, Table B2, cells printed as numeric bound.
[3] abbreviates: Homo sapiens, THP-1, Table B1, class symbols.
The mark [4] stands for this setting: Homo sapiens, THP-1, Table B1, cells printed as numeric bound.

Regarding `CC(C)c1cc(C#N)c(F)c(C(C)C)c1CC(=O)N=S(=O)(NC#N)c1cnc(C(C)(O)CO)s1` (single isomer, unassigned) [Example 359, N-(cyanamido(2-((R or S)-1,2-dihydroxypropan-2-yl)thiazol-5-yl)(oxo)-λ^6-sulfaneylidene)-2-(4-cyano-3-fluoro-2,6-diisopropylphenyl)acetamide], the IC50 under setting [1] lay within 1000 to 5000 nM.
Same read-out and setting: then `CC(C)c1cc(C#N)c(F)c(C(C)C)c1CC(=O)N=[S@](=O)(NC#N)c1cnc([C@](C)(O)CO)s1` (single isomer, unassigned) [Example 371], with 5000 to 30000 nM.
Take `CC(C)c1cc(C#N)cc(C(C)C)c1CC(=O)N=S(N)(=O)c1sc(C(C)(C)O)nc1CCO` (single isomer, unassigned) [Example 383, (R) or (S)-N-(amino(4-(2-hydroxyethyl)-2-(2-hydroxypropan-2-yl)thiazol-5-yl)(oxo)-λ^6-sulfaneylidene)-2-(4-cyano-2,6-diisopropylphenyl)acetamide]: the IC50 (Table B2, class symbols) was 200 to 1000 nM.
Same read-out and setting: then `CC(C)c1cc(C#N)cc(C(C)C)c1CC(=O)N=S(N)(=O)c1sc(C(C)(C)O)nc1CCO` (single isomer, unassigned) [Example 384, (S) or (R)-N-(amino(4-(2-hydroxyethyl)-2-(2-hydroxypropan-2-yl)thiazol-5-yl)(oxo)-λ^6-sulfaneylidene)-2-(4-cyano-2,6-diisopropylphenyl)acetamide], with 5000 to 30000 nM; and `CC(C)c1cc(C#N)cc(C(C)C)c1CC(=O)N=S(N)(=O)c1nc(CO)c(C(C)(C)O)s1` (single isomer, unassigned) [Example 385, (R) or (S)-N-(amino(4-(hydroxymethyl)-5-(2-hydroxypropan-2-yl)thiazol-2-yl)(oxo)-λ^6-sulfaneylidene)-2-(4-cyano-2,6-diisopropylphenyl)acetamide], with 200 to 1000 nM.
With `CC(C)c1cc(C#N)cc(C(C)C)c1CC(=O)N=S(N)(=O)c1nc(CO)c(C(C)(C)O)s1` (single isomer, unassigned) [Example 386, (S) or (R)-N-(amino(4-(hydroxymethyl)-5-(2-hydroxypropan-2-yl)thiazol-2-yl)(oxo)-λ^6-sulfaneylidene)-2-(4-cyano-2,6-diisopropylphenyl)acetamide], the IC50 (Table B2, class symbols) was 5000 to 30000 nM.
`CC(C)c1nc(C(F)(F)F)nc(C(C)C)c1CC(=O)N=S(N)(=O)c1cnc(C(C)(C)O)s1` (single isomer, unassigned) [Example 396, (S) or (R)-N-(amino(2-(2-hydroxypropan-2-yl)thiazol-5-yl)(oxo)-λ^6-sulfaneylidene)-2-(4,6-diisopropyl-2-(trifluoromethyl)pyrimidin-5-yl)acetamide]: the IC50 under setting [1] was 1000 to 5000 nM.
Take `CC(C)c1nc(C(F)(F)F)nc(C(C)C)c1CC(=O)N=S(N)(=O)c1cnc(C(C)(C)O)s1` (single isomer, unassigned) [Example 397, (R) or (S)-N-(amino(2-(2-hydroxypropan-2-yl)thiazol-5-yl)(oxo)-λ^6-sulfaneylidene)-2-(4,6-diisopropyl-2-(trifluoromethyl)pyrimidin-5-yl)acetamide]: under setting [2], the IC50 is over 30000 nM.
On to `CCn1cc(F)c(S(N)(=O)=NC(=O)Cc2c(C(C)C)cc3c(c2C(C)C)COC3)n1` (single isomer, unassigned) [Example 398, (R) or (S)-N-(amino(1-ethyl-4-fluoro-1H-pyrazol-3-yl)(oxo)-λ^6-sulfaneylidene)-2-(4,6-diisopropyl-1,3-dihydroisobenzofuran-5-yl)acetamide], for which, under setting [1], the IC50 was 200 to 1000 nM.
Turning to `CCn1cc(F)c(S(N)(=O)=NC(=O)Cc2c(C(C)C)cc3c(c2C(C)C)COC3)n1` (single isomer, unassigned) [Example 399, (S) or (R)-N-(amino(1-ethyl-4-fluoro-1H-pyrazol-3-yl)(oxo)-λ^6-sulfaneylidene)-2-(4,6-diisopropyl-1,3-dihydroisobenzofuran-5-yl)acetamide], the IC50 under setting [2] is over 30000 nM.
For the compound `CCn1cc(F)c(S(N)(=O)=NC(=O)Cc2c(C(C)C)cc3c(c2C(C)C)OC(F)(F)O3)n1` (single isomer, unassigned) [Example 400, (R) or (S)-N-(amino(1-ethyl-4-fluoro-1H-pyrazol-3-yl)(oxo)-λ^6-sulfaneylidene)-2-(2,2-difluoro-4,6-diisopropylbenzo[d][1,3]dioxol-5-yl)acetamide], where the note is “Table B2, class symbols”, the IC50 is 200 to 1000 nM.
Still for that read-out and setting: then `CCn1cc(F)c(S(N)(=O)=NC(=O)Cc2c(C(C)C)cc3c(c2C(C)C)OC(F)(F)O3)n1` (single isomer, unassigned) [Example 401, (S) or (R)-N-(amino(1-ethyl-4-fluoro-1H-pyrazol-3-yl)(oxo)-λ^6-sulfaneylidene)-2-(2,2-difluoro-4,6-diisopropylbenzo[d][1,3]dioxol-5-yl)acetamide], with 5000 to 30000 nM; and `CC(C)c1cc(C#N)c(F)c(C(C)C)c1CC(=O)N=S(N)(=O)c1cnc(C(O)(CO)CO)s1` (single isomer, unassigned) [Example 402, (R) or (S)-N-(amino(oxo) (2-(1,2,3-trihydroxypropan-2-yl)thiazol-5-yl)-λ^6-sulfaneylidene)-2-(4-cyano-3-fluoro-2,6-diisopropylphenyl)acetamide], with 200 to 1000 nM; and `CC(C)c1cc(C#N)c(F)c(C(C)C)c1CC(=O)N=S(N)(=O)c1cnc(C(O)(CO)CO)s1` (single isomer, unassigned) [Example 403, (S) or (R)-N-(amino(oxo) (2-(1,2,3-trihydroxypropan-2-yl)thiazol-5-yl)-λ^6-sulfaneylidene)-2-(4-cyano-3-fluoro-2,6-diisopropylphenyl)acetamide], with 5000 to 30000 nM.
Consider `CC(C)c1cc2c(c(C(C)C)c1CC(=O)N=S(=O)(NC#N)c1cc(C(C)(C)O)cs1)COC2` (stereo in doubt) [Example 343, (S)-N-(cyanamido(4-(2-hydroxypropan-2-yl)thiophen-2-yl)(oxo)-λ^6-sulfaneylidene)-2-(4,6-diisopropyl-1,3-dihydroisobenzofuran-5-yl)acetamide], for which the IC50 under setting [3] fell in the range of 5000 to 30000 nM.
On the same count and under the same terms, then `CC(C)c1cc2c(c(C(C)C)c1CC(=O)N=S(=O)(NC#N)c1cc(C(C)(C)O)cs1)COC2` (stereo in doubt) [Example 344, (R)-N-(cyanamido(4-(2-hydroxypropan-2-yl)thiophen-2-yl)(oxo)-λ^6-sulfaneylidene)-2-(4,6-diisopropyl-1,3-dihydroisobenzofuran-5-yl)acetamide], with 200 to 1000 nM.
As for `COc1cc(-c2cccc(C(C)C)c2CC(=O)N=S(=O)(NC#N)c2cnc(C(C)(O)CO)s2)ccn1` (stereo in doubt) [Example 367, N-(cyanamido(2-((S)-1,2-dihydroxypropan-2-yl)thiazol-5-yl)(oxo)-λ^6-sulfaneylidene)-2-(2-isopropyl-6-(2-methoxypyridin-4-yl)phenyl)acetamide], the IC50 under setting [1] fell in the range of 1000 to 5000 nM.
For `CC(C)(O)c1ncc([S@](N)(=O)=NC(=O)Cc2cc3c(c4c2CCC4)CCC3)s1` [Compound 259b], under setting [4], the half-maximal inhibitory concentration (IC50) was over 30000 nM.
In the case of `CC(C)c1ncnc(C(C)C)c1CC(=O)N=S(N)(=O)c1cnc(C(C)(C)O)s1` (stereo not drawn) [Compound 260], under setting [4], the IC50 was over 30000 nM.
On the same count and under the same terms, the same measure for `CC(C)c1cc2c(cnn2C)c(C(C)C)c1CC(=O)N=S(N)(=O)c1ncc(C(C)(C)O)s1` (stereo not drawn) [Compound 1341]: over 30000 nM.
In the case of `CC(C)c1cc(F)cc(C(C)C)c1CC(=O)N=S(N)(=O)c1ccc(C(C)(C)O)cc1` (stereo not drawn) [Example 1, 2-(4-Fluoro-2,6-diisopropylphenyl)-N-(4-(2-hydroxypropan-2-yl)phenylsulfonimidoyl)acetamide], the IC50 under setting [3] lay in the range of 1000 to 5000 nM.
The same measure, in the same setting: the same measure for `CC(C)c1cc(F)cc(C(C)C)c1CC(=O)N=S(N)(=O)c1ncc(C(C)(C)O)s1` (stereo not drawn) [Example 7, 2-(4-Fluoro-2,6-diisopropylphenyl)-N-(5-(2-hydroxypropan-2-yl)thiazole-2-sulfonimidoyl)acetamide]: 200 to 1000 nM.
The same measure, in the same setting: then `CC(C)c1cc(F)cc(C(C)C)c1CC(=O)NS(=N)(=O)c1ncc(C(C)(C)O)s1` [Example 8, (S)- and (R)-2-(4-fluoro-2,6-diisopropylphenyl)-N-(5-(2-hydroxypropan-2-yl)thiazole-2-sulfonimidoyl)acetamide], with 1000 to 5000 nM.
As for `CC(C)c1cc(F)cc(C(C)C)c1CC(=O)N=S(N)(=O)c1sc(C(C)(C)O)cc1F` (stereo not drawn) [Example 17, 2-(4-fluoro-2,6-diisopropylphenyl)-N-(3-fluoro-5-(2-hydroxypropan-2-yl)thiophen-2-ylsulfonimidoyl)acetamide], under “Table B1, class symbols”, the IC50 fell in the range of 8 to 40 nM.
Still for that read-out and setting: the same measure for `CC(C)c1c(F)c(C#N)cc(C2CC2)c1CC(=O)N=S(N)(=O)c1sc(C(C)(C)O)cc1F` (stereo not drawn) [Example 19, 2-(4-cyano-6-cyclopropyl-3-fluoro-2-isopropylphenyl)-N-(3-fluoro-5-(2-hydroxypropan-2-yl)thiophen-2-ylsulfonimidoyl)acetamide]: 8 to 40 nM; for `CC(C)c1cc(Cl)c(F)c(C2CC2)c1CC(=O)N=S(N)(=O)c1sc(C(C)(C)O)cc1F` (stereo not drawn) [Example 20, 2-(4-chloro-2-cyclopropyl-3-fluoro-6-isopropylphenyl)-N-(3-fluoro-5-(2-hydroxypropan-2-yl)thiophen-2-ylsulfonimidoyl)acetamide]: 200 to 1000 nM; for `CC(C)c1cc(OC(F)F)cc(C(C)C)c1CC(=O)N=S(N)(=O)c1sc(C(C)(C)O)cc1F` (stereo not drawn) [Example 21, 2-(4-(difluoromethoxy)-2,6-diisopropylphenyl)-N-(3-fluoro-5-(2-hydroxypropan-2-yl)thiophen-2-ylsulfonimidoyl)acctamide]: 40 to 200 nM.
